Measured values reported in US8486991B2, “Enantiomerically pure phosphoindoles as HIV inhibitors” (Idenix Pharmaceuticals, Inc., priority 2006, dated 2013).
“And” between values parts separate entries of the source, which are not always exact repeats. Identical values can stand only once. Like-named read-outs stand apart in the source and are kept apart here.

Legend:
[1] = target: T1, human DNA polymerase alpha (Homo sapiens, UniProt P09884); assay: Human cellular DNA polymerase alpha assay; assay type: biochemical
T1 sequence (P09884 1-1462): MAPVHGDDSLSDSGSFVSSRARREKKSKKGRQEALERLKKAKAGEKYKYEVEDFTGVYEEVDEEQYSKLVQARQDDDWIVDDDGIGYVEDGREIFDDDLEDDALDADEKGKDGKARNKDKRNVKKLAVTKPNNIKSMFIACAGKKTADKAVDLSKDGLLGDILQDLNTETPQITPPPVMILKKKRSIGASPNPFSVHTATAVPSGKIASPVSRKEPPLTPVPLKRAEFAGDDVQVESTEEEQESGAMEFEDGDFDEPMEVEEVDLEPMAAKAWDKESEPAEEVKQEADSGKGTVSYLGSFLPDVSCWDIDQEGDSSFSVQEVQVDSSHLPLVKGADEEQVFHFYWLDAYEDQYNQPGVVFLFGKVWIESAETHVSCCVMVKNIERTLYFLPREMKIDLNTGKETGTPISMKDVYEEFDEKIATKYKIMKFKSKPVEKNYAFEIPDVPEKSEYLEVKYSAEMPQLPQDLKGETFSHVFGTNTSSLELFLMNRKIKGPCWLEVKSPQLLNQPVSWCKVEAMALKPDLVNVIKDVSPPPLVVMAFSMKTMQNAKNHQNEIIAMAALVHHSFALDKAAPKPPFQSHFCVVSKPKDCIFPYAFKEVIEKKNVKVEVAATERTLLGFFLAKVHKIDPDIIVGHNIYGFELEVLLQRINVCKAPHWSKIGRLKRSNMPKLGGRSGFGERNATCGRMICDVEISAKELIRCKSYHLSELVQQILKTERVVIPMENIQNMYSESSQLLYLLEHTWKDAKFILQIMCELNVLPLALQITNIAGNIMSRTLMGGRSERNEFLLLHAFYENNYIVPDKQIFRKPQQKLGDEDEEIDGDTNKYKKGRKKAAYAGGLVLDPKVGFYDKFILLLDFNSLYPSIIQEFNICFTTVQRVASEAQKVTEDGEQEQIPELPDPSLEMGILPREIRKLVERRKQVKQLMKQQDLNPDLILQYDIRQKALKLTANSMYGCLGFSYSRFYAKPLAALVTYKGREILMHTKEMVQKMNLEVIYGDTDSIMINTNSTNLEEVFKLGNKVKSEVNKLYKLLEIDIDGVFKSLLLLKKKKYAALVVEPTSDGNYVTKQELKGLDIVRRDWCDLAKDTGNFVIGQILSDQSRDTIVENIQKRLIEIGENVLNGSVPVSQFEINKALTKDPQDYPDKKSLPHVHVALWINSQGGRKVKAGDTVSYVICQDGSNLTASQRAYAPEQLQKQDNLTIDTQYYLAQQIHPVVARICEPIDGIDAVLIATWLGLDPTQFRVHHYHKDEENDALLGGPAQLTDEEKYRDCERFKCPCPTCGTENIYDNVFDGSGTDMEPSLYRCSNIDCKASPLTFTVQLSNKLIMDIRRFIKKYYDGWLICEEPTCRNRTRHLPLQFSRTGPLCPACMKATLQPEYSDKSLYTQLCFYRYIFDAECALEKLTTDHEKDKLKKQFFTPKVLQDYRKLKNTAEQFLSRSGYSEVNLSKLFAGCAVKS
From the text: HIV RT, like other viral polymerase, shares limited structural homology with the cellular DNA polymerases responsible for normal nuclear and mitochondrial DNA synthesis and repair. This raises the formal possibility that inhibitors of HIV RT might inhibit cellular polymerases, resulting in cellular toxicity. In particular, inhibition of polymerase gamma has the potential to result in mitochondrial toxicity. The ability of Compound I and Compound III to inhibit cellular DNA polymerases was assessed using standard in vitro assays (Table 5).

[2] = tested on: HIV-1 BH10 wild-type virus; assay: microbe, parasite or virus in culture; assay type: cell-based; conditions: for Fold Change, W.T.: Table 7, EC50 mutant / EC50 wild-type
[3] = tested on: HIV-1 NL4-3 w.t. virus; assay: microbe, parasite or virus in culture; assay type: cell-based; conditions: for Fold Change, W.T.: Table 11, NL4-3
[4] = tested on: HIV-1 NL4-3 K103N virus; assay: microbe, parasite or virus in culture; assay type: cell-based; conditions: for EC50: Human immunodeficiency virus 1, NL43, MT4, read-out: Average EC50 Values ± Standard Deviation, K103N; for Fold Change, K103N: Table 11, NL4-3
[5] = tested on: HIV-1 IIIB in U937 cells; assay: Drug susceptibility assay, IIIB in U937 cells; assay type: cell-based; conditions: Human immunodeficiency virus 1, IIIB
From the text: The virus and host-cell dependency of Compound I, Compound III and control drugs was further examined in drug susceptibility assays performed across 3 different subtype B wild-type HIV-1 strains and 5 different cell lines.

[6] = Cellular cytotoxicity, 4 days, MTS, IM9; assay type: cell-based; conditions: human, Table 21, read-out: Average CC50 Values ± Standard Deviation, IM9
Procedure: (§1) Cell viability was measured by standard MTT or MTS staining.
Following drug exposure for 4 days, cell viability was measured by MTS staining and CC50 values were determined. Drug concentrations ranged from 0.005 μM to 100 μM.

[7] = In vivo pharmacokinetics, monkeys; design: species or system monkey; conditions: for bioavailability: read-out: BA (absolute oral bioavailability); for concentration at 24 h: 5 mg/kg oral dose, read-out: plasma concentrations at 24 hours post-dose
Procedure: All animals received a single oral or intravenous dose of compound in either polyethylene glycol 400 (PEG400) or a mixture of 10% ethanol (EtOH), 10% dimethylacetamine (DMA) and 80% PEG400 at the indicated dose level. Plasma concentration data were acquired using sensitive and specific LC-MS/MS methods. Pharmacokinetic data from the toxicity study included aspects of gender differences, variability and exposure.
Blood samples (1.5-2.5 mL) were collected in heparinized tubes at 0 (pre-dose), 5 (IV only), 10, 20, 30 min, 1, 2, 4, 6, 8, 12 (PO only) and 24 hr after dosing. Plasma was separated and stored at −70° C. until analysis.
Concentrations of unlabeled compound I and compound III within plasma samples and excreta from rat, dog and monkey PK studies were identified through high performance liquid chromatographic (HPLC) methods that incorporated tandem mass spectrometric detection (LC-MS/MS).
The absolute oral bioavailability was determined in pharmacokinetic by comparison of AUC values of parent compound following single intravenous and oral doses of in rats (compound III only), dogs and monkeys.

[8] = Longer term cytotoxicity, 12 days, MTS, HuH7; conditions: human
Procedure: as §1
Cells were repeatedly treated with a range of drug concentrations (0.005 to 100 μM) for 9 (HeLa) or 12 days (HuH7, HepG2).

[9] = Human immunodeficiency virus 1, MT4, 96 h, read-out: mean EC50, wild-type BH10 virus in MT-4 cells, p24 ELISA, 4 day
[10] = Human immunodeficiency virus 1, MT4, read-out: Average EC50 Values ± Standard Deviation, host MT-4, virus BH10, Table 17
[11] = read-out: mean EC50, wild-type BH10 virus in MT-4 cells, p24 ELISA, 4 day
[12] = Human immunodeficiency virus 1, NL43, MT4, read-out: Average EC50 Values ± Standard Deviation, W.T.
[13] = Human immunodeficiency virus 1, NL43, MT4, read-out: Average EC50 Values ± Standard Deviation, host MT-4, virus NL4-3
[14] = Table 5, read-out: Average IC50 Values ± Standard Deviation, DNA Pol Alpha
[15] = U-937, Table 17, read-out: Average EC50 Values ± Standard Deviation, host U937, virus IIIB
[16] = IM9 cells (B lymphoblastic cell line)

SMILES | Average IC50 Values ± Standard Deviation, DNA Pol Alpha ([1]; Table 5) | EC50 [2, 9] [nM] | EC50 [2, 10] [nM] | Fold Change, W.T. [2] [fold] | EC50 [2, 11] | EC50 [3, 12] [nM] | EC50 [3, 13] [nM] | Fold Change, W.T. [3] [fold] | EC50 [4] [nM] | Fold Change, K103N [4] [fold] | IC50 [1, 14] [nM] | EC50 [5, 15] [nM] | CC50 at 4 days [6, 16] [nM] | CC50 at 12 days ([8]; HuH7 liver cells) [nM] | also measured
CO[P@](=O)(c1cc(C)cc(/C=C/C#N)c1)c1c(C(N)=O)[nH]c2ccc(Cl)c(F)c12 [Compound I, (2-Carbamoyl-5-chloro-4-fluoro-1H-indol-3-yl)-[3-((E)-2-cyano-vinyl)-5-methyl-phenyl]-(R)-phosphinic acid methyl ester] | did not reach an IC50 | 1 | 1 ± 0.4 | 1 | 1.2 nM | 2 ± 0.1 | 2 ± 0.1 | 1 | 1.4 ± 0.4 | 0.7 ± 0.2 |  |  |  |  | IC50 ([1]; Average IC50 Values ± Standard Deviation, DNA Pol Alpha, Table 5): 146000 ± 44500 nM; IC50 ([1]; Mean IC50 Values ± Standard Deviation, DNA Pol Alpha, Table 6, N=4): 146000 ± 44500 nM; EC50 ([2]; Human immunodeficiency virus 1, MT4, read-out: EC50, BH10, Example 16 comparative tables, unit inferred, several lines per compound): 1 ± 0.5 nM; EC50 ([2]; read-out: EC50, BH10, Example 16 comparative tables, unit inferred, several lines per compound): 0.7 nM; EC50 ([5]; U-937, read-out: Average EC50 Values ± Standard Deviation, host U937, virus IIIB): 0.5 ± 0.1 nM; CC50 at 4 days [6]: 32900 ± 2600 nM; bioavailability in males based on AUC values, excluding one animal ([7]; Monkey, 5 mg/kg oral): 75%; Tmax ([7]; female, monkey, in vivo, po, 5 mg/kg, 5 mg/kg PO-Fed, 3F, median): 4 h; bioavailability ([7]; female, monkey, in vivo, po, 5 mg/kg, Monkey, 5 mg/kg PO-Fed, 3F (females)): 61%; concentration at 24 h ([7]; in vivo, monkey): 17.9 ng/mL; Tmax ([7]; male, monkey, in vivo, po, 5 mg/kg, 5 mg/kg PO-Fed, 3M, median): 4 h; Tmax ([7]; male, monkey, in vivo, po, 5 mg/kg, 5 mg/kg PO-Fed, males (3M or 2M), mean): 2.7 h; bioavailability ([7]; male, monkey, in vivo, po, 5 mg/kg, Monkey, 5 mg/kg PO-Fed, 3M (males)): 54%; bioavailability ([7]; male, monkey, in vivo, po, 5 mg/kg, Monkey, 5 mg/kg PO-Fed, males (3M or 2M), exploratory study): 58%; CC50 at 12 days [8]: 23500 ± 1610 nM
CO[P@](=O)(c1cc(C)cc(/C=C/C#N)c1)c1c(C(N)=O)[nH]c2ccc(Cl)cc12 [Compound III, (2-Carbamoyl-5-chloro-1H-indol-3-yl)-[3-((E)-2-cyano-vinyl)-5-methyl-phenyl]-(R)-phosphinic acid methyl ester] | did not reach an IC50 | 1.2 | 1.2 ± 0.6 | 1 | ~1 nM and 1 nM | 1.7 ± 0.3 | 1.7 ± 0.3 | 1 | 1.5 ± 0.3 | 0.9 ± 0.2 | 159000 ± 84300 | 0.5 ± 0.1 | 50000 ± 17400 | 31500 ± 3370 | Tmax ([7]; female, monkey, plasma, po, 5 mg/kg, 5 mg/kg PO-Fed, 3F, median): 2 h; bioavailability ([7]; female, plasma, Monkey, 5 mg/kg PO-Fed, 3F (females)): 76%; Tmax ([7]; male, monkey, plasma, po, 5 mg/kg, 5 mg/kg PO-Fed, 3M, median): 2 h; Tmax ([7]; male, monkey, plasma, po, 5 mg/kg, 5 mg/kg PO-Fed, males (3M or 2M), mean): 3 h; Tmax ([7]; male, monkey, plasma, po, 20 mg/kg, 20 mg/kg PO-Fed, 2M, mean): 2.5 h; bioavailability ([7]; male, plasma, Monkey, 5 mg/kg PO-Fed, 3M (males)): 42%; bioavailability ([7]; male, plasma, Monkey, 20 mg/kg PO-Fed, 2M): 61%; concentration at 24 h ([7]; plasma, monkey): 12 ng/mL
O=C1Nc2ccc(Cl)cc2C(C#CC2CC2)(C(F)(F)F)O1 (stereo not shown) [EFV, 6-chloro-4-cyclopropylethynyl-4-trifluoromethyl-1,4-dihydro-2H-3,1-benzoxazin-2-one, reference compound] | did not reach an IC50 | ~1 | 1.2 ± 0.8 |  |  | 2.3 ± 0.2 | 2.3 ± 0.2 |  | 61.2 ± 33.8 |  | 109000 ± 40900 | 1.5 ± 0.8 | 51000 ± 1300 | 75700 ± 12400 | IC50 ([1]; Table 6, N=4, read-out: Mean IC50 Values ± Standard Deviation, DNA Pol Alpha): 109000 ± 40900 nM
